One test deals with human DP2 (Homo sapiens (Human), UniProt Q9Y5Y4). Nature of the test: DP-2 Binding Inhibition Assay (3H-PGD2 binding to membranes of K562 cells expressing DP2). As to conditions: EC50 (nM) 0.1% BSA, inhibition of 3H-PGD2 binding, 0.1% BSA. The method, then:
DP-2 Binding Inhibition Assay
The coding sequence of human DP2 was introduced into the human Leukemic cell line K562 by electroporation and stable clones expressing DP2 were obtained by limiting dilution followed by cell surface staining with a rat monoclonal antibody specific for human DP2. Membranes were prepared from one of these DP2 expressing clones and used to determine the ability of compounds of the present invention to inhibit binding of prostaglandin D2 (PGD2) to its receptor DP2 in the presence of one or more of the following serum protein concentrations, 0.1% BSA, 1% HSA or 4% HSA, by the following procedure. Membranes (1.25 μg/well for 0.1% BSA and 6 μg/well for 1% or 4% HSA) were mixed with ^3H-labeled PGD2 and various concentrations of test compounds in 150 μL of binding buffer (50 mM Tris-HCl, pH 7.4, 40 mM MgCl2, 0.1% bovine serum albumin, 0.1% NaN3) in 96-well U-bottom polypropylene plates. After incubation for 60 minutes at room temperature, the assay was transferred to a filtration plate (#MAFB; Millipore Corporation, Bedford, Mass.), and washed three times with binding buffer. Radioactivity was measured by a scintillation counter (TopCount; PerkinElmer Life Sciences, Boston, Mass.). Nonspecific binding was determined by incubations in the presence of 1 μM unlabeled PGD2 or 5 μM of a known DP2 antagonist. EC50 values for inhibition of binding were determined for each compound tested from the inflexion point of a standard 4-parameter logistical curve fitted to the values obtained.
Sequence of human DP2 (Q9Y5Y4 whole entry): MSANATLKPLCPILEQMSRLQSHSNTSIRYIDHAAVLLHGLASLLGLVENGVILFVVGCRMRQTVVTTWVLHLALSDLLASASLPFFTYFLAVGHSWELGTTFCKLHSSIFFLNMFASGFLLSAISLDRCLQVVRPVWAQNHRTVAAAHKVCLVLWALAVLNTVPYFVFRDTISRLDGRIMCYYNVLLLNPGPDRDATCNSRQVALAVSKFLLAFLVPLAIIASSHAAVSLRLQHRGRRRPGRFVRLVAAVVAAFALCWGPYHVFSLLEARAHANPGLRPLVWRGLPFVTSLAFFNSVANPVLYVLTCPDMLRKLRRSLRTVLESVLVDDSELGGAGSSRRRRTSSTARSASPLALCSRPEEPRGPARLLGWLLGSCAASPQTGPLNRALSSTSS
Turning to `O=C(NCCc1ccc(Cl)cc1O)c1ccc(Oc2cc3c(cc2Cl)C(C(=O)O)CCO3)cc1` (centres unmarked) [Example 233, 6-Chloro-7-(4-(4-chloro-2-hydroxyphenethylcarbamoyl)phenoxy)chroman-4-carboxylic acid], the EC50 was found to be 11.1 nM.

The same test, now with this note: EC50 (nM) 4% HSA, inhibition of 3H-PGD2 binding, 4% HSA.
The compound `O=C(NCCc1ccc(Cl)cc1Cl)c1ccc(Oc2cc3c(cc2Cl)C(C(=O)O)CCO3)cc1` (single isomer, unassigned) [Example 106 Enantiomer 1, 6-chloro-7-(4-(2,4-dichlorophenethylcarbamoyl)phenoxy)chroman-4-carboxylic acid] registered an EC50 greater than 5000 nM.

Staying with this test, now noted: assay described in Example A.
`O=C(NCCc1ccc(Cl)cc1Cl)c1ccc(Oc2cc3c(cc2Cl)C(C(=O)O)CCO3)cc1` (single isomer, unassigned) [Example 106 Enantiomer 1, 6-chloro-7-(4-(2,4-dichlorophenethylcarbamoyl)phenoxy)chroman-4-carboxylic acid]: the “relative activity of the enantiomers in the DP2 binding inhibition assay” value is “less active than the sodium salt of Enantiomer 2”.

Staying with this test, now noted: read-out: EC50 (Nm) 1% HSA; inhibition of 3H-PGD2 binding, 1% HSA.
With `CC(Cc1ccc(Cl)cc1)NC(=O)c1ccc(Oc2cc3c(cc2C#N)C(C(=O)O)CCO3)cc1` (centres unmarked) [Example 132, 7-(4-(1-(4-Chlorophenyl)propan-2-ylcarbamoyl)phenoxy)-6-cyanochroman-4-carboxylic acid], the EC50 was found to be 37.4 nM. For `COc1ccc2c(c1)CCC(NC(=O)c1ccc(Oc3cc4c(cc3C#N)C(C(=O)O)CCO4)cc1)C2` (centres unmarked) [Example 53, 6-Cyano-7-(4-(6-methoxy-1,2,3,4-tetrahydronaphthalen-2-ylcarbamoyl)phenoxy)chroman-4-carboxylic acid], the concentration giving a half-maximal response (EC50) amounted to 60.5 nM.

On to `N#Cc1cc2c(cc1Oc1ccc(C(=O)NC3Cc4ccc(Cl)cc4C3)cc1)OCCC2C(=O)O` (centres unmarked) [Example 73, 7-(4-(5-Chloro-2,3-dihydro-1H-inden-2-ylcarbamoyl)phenoxy)-6-cyanochroman-4-carboxylic acid], for which the 50% effective concentration (EC50) amounted to 42.4 nM.

Staying with this test, now noted: read-out: EC50 (nM) 4% HSA; inhibition of 3H-PGD2 binding, 4% HSA.
In the case of `CSc1ccccc1CCNC(=O)c1ccc(Oc2cc3c(cc2Cl)C(C(=O)O)CCO3)cc1` (centres unmarked) [Example 117, Sodium 6-chloro-7-(4-(2-(methylthio)phenethylcarbamoyl)phenoxy)chroman-4-carboxylate], the EC50 worked out at 246 nM. With `O=C(NCCc1cc(Cl)cc(Cl)c1)c1ccc(Oc2cc3c(cc2Cl)C(C(=O)O)CCO3)cc1` (centres unmarked) [Example 148, Sodium 6-chloro-7-(4-(3,5-dichlorophenethylcarbamoyl)phenoxy)chroman-4-carboxylate], the concentration for a half-maximal effect (EC50) came out at 196 nM. The same measure, in the same setting: to `O=C(NCCc1ccc(Cl)cc1-c1ccccc1Cl)c1ccc(Oc2cc3c(cc2Cl)C(C(=O)O)CCO3)cc1` (centres unmarked) [Example 33, Sodium 6-chloro-7-(4-(2-(2′,5-dichlorobiphenyl-2-yl)ethylcarbamoyl)phenoxy)chroman-4-carboxylate] belongs 126 nM; to `O=C(NC1CCC(c2ccc(Cl)c(Cl)c2)C1)c1ccc(Oc2cc3c(cc2Cl)C(C(=O)O)CCO3)cc1` (centres unmarked) [Example 173, Sodium 6-chloro-7-(4-(3-(3,4-dichlorophenyl)cyclopentylcarbamoyl)phenoxy)chroman-4-carboxylate], 327 nM.

On to `O=C(NCCc1ccc(O)cc1)c1ccc(Oc2cc3c(cc2Cl)C(C(=O)O)CCO3)cc1` (centres unmarked) [Example 84, Sodium 6-chloro-7-(4-(4-hydroxyphenethylcarbamoyl)phenoxy)chroman-4-carboxylate], for which the EC50 turned out to be 1380 nM.

For the compound `O=C(NCCc1ccc(F)cc1F)c1ccc(Oc2cc3c(cc2Cl)C(C(=O)O)CCO3)cc1` (centres unmarked) [Example 81, Sodium 6-chloro-7-(4-(2,4-difluorophenethylcarbamoyl)phenoxy)chroman-4-carboxylate], the EC50 was found to be 191 nM. On the same count and under the same terms, then `Cc1ccc(-c2cccc(NC(=O)c3ccc(Oc4cc5c(cc4C#N)C(C(=O)O)CCO5)cc3)c2)cc1C` (centres unmarked) [Example 66, 6-Cyano-7-(4-(3′,4′-dimethylbiphenyl-3-ylcarbamoyl)phenoxy)chroman-4-carboxylic acid], with 68.2 nM. On the same count and under the same terms, to `COc1cc(Br)ccc1CCNC(=O)c1ccc(Oc2cc3c(cc2Cl)C(C(=O)O)CCO3)cc1` (centres unmarked) [Example 35, Sodium 7-(4-(4-bromo-2-methoxyphenethylcarbamoyl)phenoxy)-6-chlorochroman-4-carboxylate] belongs 64.3 nM. Still for that read-out and setting: to `O=C(NCCc1ccc(-c2ccccc2Cl)cc1)c1ccc(Oc2cc3c(cc2Cl)C(C(=O)O)CCO3)cc1` (centres unmarked) [Example 26, Sodium 6-chloro-7-(4-(2-(2′-chlorobiphenyl-4-yl)ethylcarbamoyl)phenoxy)chroman-4-carboxylate] belongs 160 nM; to `O=C(NCC/C=C\c1ccc(Cl)cc1Cl)c1ccc(Oc2cc3c(cc2Cl)C(C(=O)O)CCO3)cc1` (centres unmarked) [Example 18, Sodium (Z)-6-chloro-7-(4-(4-(2,4-dichlorophenyl)but-3-enylcarbamoyl)phenoxy)chroman-4-carboxylate], 502 nM.

`O=C(NCCc1ccc(Br)cc1Cl)c1ccc(Oc2cc3c(cc2Cl)C(C(=O)O)CCO3)cc1` (centres unmarked) [Example 28, Sodium 7-(4-(4-bromo-2-chlorophenethylcarbamoyl)phenoxy)-6-chlorochroman-4-carboxylate]: the EC50 came to 123 nM. Still for that read-out and setting: then `O=C(NCCc1ccc(C(F)(F)F)cc1C(F)(F)F)c1ccc(Oc2cc3c(cc2Cl)C(C(=O)O)CCO3)cc1` (centres unmarked) [Example 221, 7-(4-(2,4-bis(trifluoromethyl)phenethylcarbamoyl)phenoxy)-6-chlorochroman-4-carboxylic acid], with 45 nM. Still for that read-out and setting: to `N#Cc1cc2c(cc1Oc1ccc(C(=O)Nc3cccc(-c4ccccc4)c3)cc1)OCCC2C(=O)O` (centres unmarked) [Example 67, 7-(4-(Biphenyl-3-ylcarbamoyl)phenoxy)-6-cyanochroman-4-carboxylic acid] belongs 173 nM. On the same count and under the same terms, then `O=C(NCCc1c(F)cccc1Cl)c1ccc(Oc2cc3c(cc2Cl)C(C(=O)O)CCO3)cc1` (centres unmarked) [Example 82, Sodium 6-chloro-7-(4-(2-chloro-6-fluorophenethylcarbamoyl)phenoxy)chroman-4-carboxylate], with 473 nM; and `Cc1ccc(-c2cccc(NC(=O)c3ccc(Oc4cc5c(cc4C#N)C(C(=O)O)CCO5)cc3)c2)cc1` (centres unmarked) [Example 107, 6-Cyano-7-(4-(4′-methylbiphenyl-3-ylcarbamoyl)phenoxy)chroman-4-carboxylic acid], with 115 nM.

`COc1cc(C2CC2)ccc1CCNC(=O)c1ccc(Oc2cc3c(cc2Cl)[C@@H](C(=O)O)CCO3)cc1` (single isomer, unassigned; enantiomer 2) [235 Enantiomer 2]: the concentration giving a half-maximal response (EC50) came out at 17 nM. Still for that read-out and setting: then `Cc1nccc(-c2cccc(NC(=O)c3ccc(Oc4cc5c(cc4C#N)C(C(=O)O)CCO5)cc3)c2)n1` (centres unmarked) [Example 70, 6-Cyano-7-(4-(3-(2-methylpyrimidin-4-yl)phenylcarbamoyl)phenoxy)chroman-4-carboxylic acid], with 995 nM; and `O=C(NC1CN(c2cccc(C(F)(F)F)c2)C1)c1ccc(Oc2cc3c(cc2Cl)C(C(=O)O)CCO3)cc1` (centres unmarked) [Example 121, Sodium 6-chloro-7-(4-(1-(3-(trifluoromethyl)phenyl)azetidin-3-ylcarbamoyl)phenoxy)chroman-4-carboxylate], with 4320 nM; and `CC1(C)CCC(NC(=O)c2ccc(Oc3cc4c(cc3Cl)C(C(=O)O)CCO4)cc2)CC1` (centres unmarked) [Example 157, 6-Chloro-7-(4-(4,4-dimethylcyclohexylcarbamoyl)phenoxy)chroman-4-carboxylic acid], with 1580 nM. For `O=C(NCCc1ccc(F)cc1)c1ccc(Oc2cc3c(cc2Cl)C(C(=O)O)CCO3)cc1` (centres unmarked) [Example 85, Sodium 6-chloro-7-(4-(4-fluorophenethylcarbamoyl)phenoxy)chroman-4-carboxylate], the concentration for a half-maximal effect (EC50) came out at 344 nM. On the same count and under the same terms, to `O=C(NCCc1ccc(-c2ccccc2Cl)cc1Cl)c1ccc(Oc2cc3c(cc2Cl)C(C(=O)O)CCO3)cc1` (centres unmarked) [Example 29, Sodium 6-chloro-7-(4-(2-(2′,3-dichlorobiphenyl-4-yl)ethylcarbamoyl)phenoxy)chroman-4-carboxylate] belongs 137 nM; to `O=C(NCCCCc1cccc(Cl)c1)c1ccc(Oc2cc3c(cc2Cl)C(C(=O)O)CCO3)cc1` (centres unmarked) [Example 14, Sodium 6-chloro-7-(4-(4-(3-chlorophenyl)butylcarbamoyl)phenoxy)chroman-4-carboxylate], 824 nM; to `O=C(NCCc1cccc(O)c1)c1ccc(Oc2cc3c(cc2Cl)C(C(=O)O)CCO3)cc1` (centres unmarked) [Example 83, Sodium 6-chloro-7-(4-(3-hydroxyphenethylcarbamoyl)phenoxy)chroman-4-carboxylate], 569 nM. The same measure, in the same setting: to `N#Cc1cc2c(cc1Oc1ccc(C(=O)NCC3Cc4ccccc4C3)cc1)OCCC2C(=O)O` (centres unmarked) [Example 126, 6-Cyano-7-(4-((2,3-dihydro-1H-inden-2-yl)methylcarbamoyl)phenoxy)chroman-4-carboxylic acid] belongs 179 nM; to `N#Cc1cc2c(cc1Oc1ccc(C(=O)Nc3ccc(-c4ccccc4)cc3)cc1)OCCC2C(=O)O` (centres unmarked) [Example 68, 7-(4-(Biphenyl-4-ylcarbamoyl)phenoxy)-6-cyanochroman-4-carboxylic acid], 206 nM.

Turning to `O=C(NCCc1ccc(Cl)cc1)c1ccc(Oc2c(C3CC3)cc3c(c2C2CC2)OCCC3C(=O)O)cc1` (centres unmarked) [Example 39, Sodium 7-(4-(4-chlorophenethylcarbamoyl)phenoxy)-6,8-dicyclopropylchroman-4-carboxylate], the concentration for a half-maximal effect (EC50) is 68.2 nM.
